Test results taken from US20240075027A1, “REPOSITIONING THE ANTI-LEPROSY DRUG CLOFAZIMINE AGAINST DRUG-RESISTANT MYELOMA AND PUTATIVE STEM-CELL SUBCLONES” (Auburn University, priority 2022, published 2024).
Like-named read-outs stand apart in the source and are kept apart here.

Columns and labels:
ALDH+ myeloma cells = test: Aldefluor (ALDH) activity assay; format: cell-based, human; settings: 24 h
Experimental: Aldehyde dehydrogenase (ALDH) activity was assessed using the Aldefluor™ assay kit according to the manufacturer's instructions (Stem Cell Technologies). Briefly, 1×10^6 myeloma cells were treated with CLF-based regimens for 24 h, harvested, and resuspended in 1 ml Aldefluor™ assay buffer containing the ALDH substrate BODIPY-aminoacetaldehyde (BAAA). Negative control samples were treated with 5 μl of diethylaminobenzaldehyde (DEAB) as an inhibitor of ALDH1 enzymatic activity. Cells were incubated for 30-45 min at 37° C., then washed twice, and suspended in Aldefluor™ assay buffer. The brightly fluorescent ALDH+ cells were detected by BD LSR II flowcytometry.

[1] = system: caspase-3/7 activity in HMCLs; test: Caspase-Glo 3/7 luminescent assay; format: cell-based, human
Experimental: Caspase-3/7 activity assays were performed on the HMCLs using Caspase-Glo 3/7 luminescent assay kit according to manufacturer's instructions (Promega Madison, WI). Briefly, 1×10^6 cells/ ml were cultured in 6-well plates and treated with either CLF alone and/or combination for indicated times. After harvesting, cells were washed twice with cold PBS and resuspended with Caspase-Glo 3/7 reagents. Reactions were incubated for 1 h at 37° C., and luminescence was determined using Synergy 2 Microplate Reader (Biotek). Cell death by apoptosis was also measured by immunoblotting analysis.

RPMI8226P/VR cells [2] = test: Superoxide levels (DHE flow cytometry); format: cell-based, human; settings: 24 h
Experimental: Myeloma cells treated with CLF-based regimens for 24 h were incubated with 2.5 μM DHE (in RPMI) for 15 min in the dark at 37° C. Cells were then washed once with PBS, and red fluorescence was detected by flow cytometry.

[3] = cited from earlier work
[4] = system: human myeloma cell lines (HMCLs); test: Drug synergy analysis (Calcusyn, Chou-Talalay combination index); format: cell-based; settings: CLF in combination with PI or IMiD
Experimental: (§1) HMCLs were treated with increasing concentrations of CLF, PIs (represented by Ix), and IMiDs (represented by Len) as single agents or in combination for 48 h, and cytotoxicity assays were performed using CellTiter-Glo® Luminescent cell viability assay (Promega Madison, WI). Luminescence was recorded in a Neo2 Microplate Reader (Biotek), and half-maximal inhibitory concentration (IC50) values were determined by calculating the nonlinear regression using the sigmoidal dose-response equation (variable slope). The drug cytotoxicity data and IC50 values were used to compare response and to determine synergy by Calcusyn software (Biosoft; Chou-Talalay's CI theorem) (Chou, 2011, Am J Cancer Res, 1: 925-54). CI value <0.9 denotes synergism.

[5] = system: bone marrow-derived CD138+ primary myeloma cells (PMCs); test: Ex vivo direct-to-drug screening assay (CellTiter-Glo); format: cell-based; settings: Homo sapiens, single-agent
Experimental: Bone marrow-derived CD138+ primary myeloma cells were obtained from patients (n=16) and used as ex vivo model systems. Written informed consent was received from participants prior to inclusion in the study. Participants have been identified by number, not by name. The primary samples were cultured as total bone marrow and put in culture to retain the patients' natural BM microenvironment. Cells of interest were CD138+-gated during analysis. The drugs were screened in a 7-point, 10-fold dilution, with the highest concentration at 10 μM, and incubated for 24 h. Anti-MM activity was assessed through cellular viability, evaluated with CellTiter-Glo®. The mid-point EC50, percentage of maximum inhibition was calculated using the TIBCO Spotfire® v.7.0.0 software, and the area under the curve (AUC) was calculated with the GraphPad Prism v.8 software (Bonolo de Campos et al., 2020, Blood Cancer J., 10:54).

[6] = system: RPMI8226P, RPMI8226VR, U266P, and U266VR cells; test: CFSE assay of quiescent CD138+ cells; format: cell-based, human; settings: parental and clonally derived PI-resistant cells
Experimental: For assessing apoptosis in quiescent CD138+ cells, myeloma cells were first stained with carboxyfluorescein succinimidyl ester (CFSE; Invitrogen) for 30 min, then washed and resuspended in RPMI1640 medium and were incubated at 37° C. overnight. The next day, cells were treated and maintained further for 4 days with supplementation of the drugs every 48 h.

[7] = system: Side population (SP) cells in PI-resistant HMCLs; test: Side population analysis (DyeCycle Violet); format: cell-based, human
Experimental: Side population cells were investigated using DyeCycle™ Violet (cell-permeable DNA binding) assays according to manufacturer's instructions (Thermofisher). […] After 96 h, cells were stained with 10 μM Vybrant™ DyeCycle™ Violet (DCV; Molecular Probes, Eugene, OR) for 90 min at 37° C. Samples incubated with 100 μM verapamil (Sigma-Aldrich) for 30 min were used as positive control. Following dye incubation, cells were washed twice with ice-cold PBS, chilled on ice, and immediately analyzed by flow cytometry.

[8] = system: HMCLs (RPMI826 P/VR and U266 P/VR); test: Colony-forming cells (CFCs) assay (Methocult); format: cell-based, human
Experimental: Colony formation potential of untreated and drug-treated HMCLs was accessed using Methylcellulose-based assay according to manufacturer's instructions (Methocult, Stem Cell Technologies). Briefly, myeloma cells were treated with either CLF alone or in combination with PI for the indicated time period. Following incubation, cells were harvested, washed with PBS, and methylcellulose-based media (Methocult) was added to cells pellets, and colonies were allowed to grow for 4 weeks in 6-well plates. Images were captured after 4 weeks with an inverted microscope (Olympus, 4×/20× lens with color camera), and cell colony numbers were counted by Image J software (NIH).

HMCLs = test: Apoptosis assay (Annexin V-FITC flow cytometry); format: cell-based, human
Experimental: Cells were cultured for 48 h in the presence of indicated concentrations of compounds, harvested and washed, and incubated with Annexin V-FITC (BD Biosciences) and Propidium Iodide for 15 min at room temperature in the dark. Apoptosis was measured by BD LSR II flow cytometry (BD Biosciences).

[9] = system: HMCLs and patient primary myeloma cells; test: Mass cytometry (CyTOF) single-cell proteomics; format: cell-based, human
Experimental: Mass cytometry (CyTOF) analysis is a single-cell proteomics methodology that combines flow cytometry and elemental mass spectrometry. Thirty-seven antibody targets directed against cell surface (neoplastic myeloma) and intracellular markers (immune tumor microenvironment) were utilized for immunophenotyping panels. The antibody markers and respective metal conjugates are described in Table 2. One to three million untreated or treated (for 24 h) HMCLs or primary human myeloma cells were used for CyTOF staining. Cells were stained with cisplatin (1:10,000 dilutions in RPMI1640 media without FBS) at 37° C. for 5 minutes, washed with media with 10% FBS, spun at 300×g, and incubated with media with 10% FBS for 15 min. This was followed by another wash, spin, and the pellet was resuspended in 1× Fix buffer for 10 minutes at room temperature. HMCL samples, along with lyophilized healthy human PBMC (Veri-Cells PBMC: control cells; BioLegend), were washed using Maxpar cell staining buffer (MCSB) (Fluidigm). A total of 16 μL of the surface antibody cocktail was added to each tube containing each cell suspension in 100 μL of MCSB and incubated for 30 minutes at room temperature. Cells were washed with MCSB to remove excess antibodies and stored overnight at −80° C. after methanol fixation. Cells were washed with MCSB and incubated with 20 μL of intracellular antibody cocktail for 30 minutes at room temperature, followed by wash and fixation with fresh 1.6% formaldehyde solution for 10 minutes at room temperature. Cells were washed with MCSB and resuspended in 1 ml of Cell-ID™ Intercalator solution (1:4000 dilution in permeabilization buffer, Maxper Fix, and Perm Buffer). All samples were barcoded using cell-ID™ 20-Plex Barcoding Kit (Fluidigm), which were then stained, washed with MSCB, and acquired as a single multiplexed sample using Maxpar Cell Acquisition solution contained calibration beads.
Samples were loaded onto a Helios CyTOF system (Fluidigm) using an attached autosampler and were acquired at a rate of 200-400 events per second. Data were collected as .FCS files using the CyTOF Software (Version 6.7.1014, Fluidigm). After acquisition, intrafile signal drift was normalized to the acquired calibration bead signal using the CyTOF Software.
For CyTOF data analysis, Cytobank software version 7.3.0 (Santa Clara, CA) was used for cleanup of cell debris, removal of doublets and dead cells, and analysis of cleaned fcs files. Clustering, dimensionality reduction (to 10,000 events per file), and the visualization of cell population cluster map were performed by t-SNE. Relative marker intensities and cluster abundances per sample were visualized by a heatmap.

RPMI8226P/VR cells [10] = test: Mitochondrial membrane potential (JC-1); format: cell-based, human; settings: 24 h
Experimental: CLF-treated (24 h) cells were incubated with 5 μM JC-1 dye for 15 min in the dark at 37° C. and washed twice in PBS, and then analyzed for red and green fluorescence by flow cytometry.

[11] = system: apoptotic, ER stress, autophagy and survival proteins in myeloma cells; test: Western blotting (immunoblotting) pre- vs post-treatment; format: cell-based, human
Experimental: Cells treated with CLF, PI, or IMiD as single-agent or as a combination for 24 h were harvested, washed, and lysed using radioimmunoprecipitation assay (RIPA) lysis buffer containing 50 mM Tris-HCl, pH 7.5, 150 mM NaCl, 1% NP40, 5 mM EDTA, 1 mM DTT, phosphatase and […] cocktail (Sigma), and incubated on ice for 15 min. Samples were then centrifuged at 14,000 rpm at 4° C. for 30 mins. The supernatant was then aspirated, total protein was isolated and quantified using Pierce BCA Protein Assay Kit (Thermo Scientific). Samples were solubilized in SDS-PAGE sample buffer, and equal amounts of protein were loaded per lane of 10% SDS polyacrylamide gels and transferred onto PVDF membranes (Millipore; Billerica, MA). Membranes were blocked in TBS with SuperBlock® blocking buffer (Thermo Fisher). Membranes were then incubated with primary antibodies and secondary antibodies in TBS with 0.2% Tween® 20 and 2.5% BSA. Immunoreactivity was detected by Chemiluminescent HRP Substrate (Bio-Rad), and the exposed image was captured using a ChemiDoc MP Imaging System (Bio-Rad). Densitometry analysis was performed (in triplicates) using Image J software.

[12] = system: human myeloma cell lines (HMCLs); test: In vitro chemosensitivity assay (CellTiter-Glo cell viability); format: cell-based; settings: single-agent
Source text: A large panel of HMCLs representing innate sensitivity and resistance to PIs and IMiDs (similar to refractory disease) have been compiled, as well as >10 pairs of parental and clonally-derived PI/IMiD-resistant HMCLs (P vs R pairs; generated using dose escalation over a period of time) representing acquired or emerging drug resistance, and encompassing the broad spectrum of biological and genetic heterogeneity of myeloma (Mitra et al., 2017, Blood Cancer J., 7:e581). The human myeloma cell lines (HMCLs) were obtained as previously described (Mitra et al., 2017, Blood Cancer J., 7:e581). The clonally related acquired PI-resistant HMCLs were generated from parental cell lines by dose escalation of bortezomib using pulses of once-weekly bortezomib treatment as described previously (Mitra et al., 2016, Leukemia., 30:1094-1102). […]
as §1, with “The drug cytotoxicity data and IC50 values were used to compare response and to determine synergy by Calcusyn software (Biosoft; Chou-Talalay's CI theorem) (Chou, 2011, Am J Cancer Res, 1: 925-54). CI value <0.9 denotes synergism.” left out

[13] = HMCLs and patient-derived primary cells, irrespective of PI- or IMiD-resistance

With `CC(C)/N=c1\cc2n(-c3ccc(Cl)cc3)c3ccccc3nc-2cc1Nc1ccc(Cl)cc1` [CLF, clofazimine] the ALDH activity (ALDH+ myeloma cells) was “significant decrease in ALDH activity”, the “caspase-3 activity (Caspase 3/7 assay)” value [1] was “induced caspase-3 activity” and the “cellular superoxide anions (DHE)” value (RPMI8226P/VR cells [2]) was “induction of cellular superoxide anions”. The safe dose range ([3]; corresponds to human plasma Cmax) was 0.84 to 8.4 µM, the “human plasma Cmax” value ([3]; human plasma) was 400 to 4000 ng/mL and the “therapeutic index / amount of PI/IMiD required (dose reduction index, predicted decrease in IC50)” value [4] was “decreased the amount of PI/IMiD required to achieve effective responses”. For the same molecule, the EC50 ([5]; ex vivo, patients n=12, read-out: maximum EC50) was 15200 nM, the EC50 ([5]; ex vivo, patients n=12, read-out: median EC50) was 2410 nM and the EC50 ([5]; ex vivo, patients n=12, read-out: minimum EC50) was 1050 nM. For the same molecule, the EC50 ([5]; patients n=12, range, read-out: ex vivo CLF EC50 values) was 1000 to 15000 nM, the “apoptosis in CFSEbright and CFSEdim cells” value [6] was “caused apoptosis in both CFSEbright and CFSEdim cells” and the “number of CFSE-bright (non-dividing) cells” value [6] was “significantly reduced their number”. The “side population (SP)” value [7] was “reduced SP”, the colony formation ([8]; PI-resistant lines (RPMI826 P/VR and U266 P/VR)) was “significantly reduced colony formation” and the “colony number and colony size” value ([8]; compared to control or ixazomib) was “significantly reduced colony number as well as colony size”. The “apoptosis (annexin V staining)” value (HMCLs; CLF alone) was “significant apoptosis”, the “apoptosis (annexin V staining)” value (HMCLs; in combination with 15 nm ixazomib) was “significant apoptosis” and the “cleaved caspase-3 levels (CyTOF)” value [9, 13] was “elevated cleaved caspase-3 levels”. The “marker expression (CyTOF)” value [9, 13] was “downregulation of pS6, IRF4, pCREB, pRB, IKZF1”, the “cleaved caspase levels (CyTOF)” value ([9]; all cell lines and primary samples, cluster enriched for cells exposed to high dose CLF) was “elevated cleaved caspase levels” and the “myeloma survival markers incl. IRF4, IKZF1, IKZF3, CD229, CD27, pS6, pERK, IkBa (CyTOF and immunoblotting)” value ([9]; pre- vs post-treatment) was “shifts in a majority of these markers”. The “mitochondrial membrane potential (JC-1)” value (RPMI8226P/VR cells [10]) was “mitochondrial membrane depolarization”, the “ER stress pathway and autophagy proteins” value ([11]; IRE1, PERK, ATF6, mRNA sequencing, IPA and Western blotting) was “induces the proteins involved ER stress pathway” and the “anti-apoptotic/survival markers and Bax expression” value ([11]; Western blotting) was “decrease in the anti-apoptotic/survival markers Bcl2, Mcl-1 and increase in Bax expression”. The “caspase activation (Western blotting)” value ([11]; caspase-3, 8, 9) was “activated caspase-3 and 9 but not 8”, the “STAT and HIF-1α expression” value ([11]; myeloma, FIG. 3D densitometry) was “downregulation of STATS and HIF-1α” and the IC50 ([12]; Homo sapiens, 48 h, panel of sensitive, innate and clonally-derived resistant HMCLs) was 200 to 20500 nM. The “anti-myeloma potency compared with other PPARg agonists (rosiglitazone, pioglitazone)” value [12] was “most potent among all the PPARg agonists tested”.
